Source: the supplement of paper PMC11208160

Test: recombinant barcode read abundance after kanamycin selection (control-corrected) (log10(CPM+1)); higher = more efficient recombination; sequences stand for … in AGTGCAGAGAAAATCGGCCAGTTTTCTCTGCCTGCAGTCCGCATGCCGT…AGATTTATGCAGCGGACTGCCTTTCTCCCAAAGTGATAAACCGGACAGTATCATGGACCGGTTTTCCCGGTAATCCGTATTTGCAAGGTTGGTTTCACT; site = the 11-nt target
Method: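 Pooled E. coli target-specificity screen for the IS621 bridge recombinase. Each library plasmid pairs an 11-nt target (CT core) with a bridge RNA whose target-binding loop (9-nt LTG + 4-nt RTG) is reprogrammed; the rest of the 177-nt WT IS621 bridge RNA scaffold is fixed. The plasmid is co-electroporated with a WT donor plasmid; recombinase is induced with 0.1 mM IPTG and recombinants are selected on kanamycin. Recombinant barcodes are sequenced, converted to CPM, averaged over two biological replicates and corrected by the unselected control CPM. Molecule = full bridge RNA written as DNA: LTG = specificity nt 1-9, RTG = reverse complement of specificity nt 8-11, in the WT scaffold.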
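For recombinant UMI read abundance after kanamycin selection (control-corrected) in this document: IS621 bridge recombinase in Escherichia coli cells against a fixed T5 target plasmid.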

Sequence | recombinant barcode read abundance (log10)
AAACCACCTTGGGTTCTAACCTGTTGCCT (site AAACCACCTAG) | 1.49
AAACCACCTTGGGTTCTAACCTGTTGCCT (site ACACCACCTAG) | 0.257
AAACCACCTTGGGTTCTAACCTGTTGCCT (site AGACCACCTAG) | 0.276
AAACCACCTTGGGTTCTAACCTGTTGCCT (site ATACCACCTAG) | 0.861
AAATCCTCTTGGGTTCTAACCTGTTGCCT (site AAATCCTCTAG) | 1.04
AAATCCTCTTGGGTTCTAACCTGTTGCCT (site CAATCCTCTAG) | 0.475
AAATCCTCTTGGGTTCTAACCTGTTGCCT (site GAATCCTCTAG) | 0.085
AAATCCTCTTGGGTTCTAACCTGTTGCCT (site TAATCCTCTAG) | 0.409
AAATGACCTTGGGTTCTAACCTGTTGCGT (site AAATGACCTAC) | 2.66
AAATGACCTTGGGTTCTAACCTGTTGCGT (site GTGCCCGCTCT) | 0.548

Test: recombinant UMI read abundance after kanamycin selection (control-corrected) (log10(CPM+1)); higher = more efficient recombination; extreme values may be limits of the assay; sequences stand for … in AGTGCAGAGAAAATCGGCCAGTTTTCTCTGCCTGCAGTCCGCATGCCGTGGGACCCCTTGGGTTCTAACCTGTTGCCTAGATTTATGCAGCGGACTGCCTTTCTCCCAAAGTGATAAACCGG…AGGTTGGTTTCACT; site = the 11-nt donor
In short: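 In a pooled Escherichia coli screen for the IS621 bridge recombinase, donor and donor-binding-loop pairs were each placed with a 12-nt UMI on a plasmid bearing a promoterless kanamycin gene. This library was co-electroporated with a target plasmid encoding a fixed target and T7-inducible recombinase, and cells were plated either on IPTG (0.07 mM) plus kanamycin or without selection, in two replicates each. Recombinant UMIs were PCR-amplified across the donor–target junction and sequenced, and counts were converted to CPM, averaged over replicates, scaled by control-derived factors and reported as log10(CPM+1).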

Sequence | recombinant UMI read abundance (log10)
TTCTAGGCATGGACCGGTTTTCCCGGTAATCCGTATTTGCG (site TTCTAGGCTCG) | 0.0116
TTCTTCACATGGACCGGTTTTCCCGGTAATCCGTATTTGTC (site TTCTTCACTGA) | 0
TTGAACGCATGGACCGGTTTTCCCGGTAATCCGTATTTGAC (site TTGAACGCTGT) | 0.899
TTGACTACATGGACCGGTTTTCCCGGTAATCCGTATTTGCT (site TTGACTACTAG) | 1.09
TTGATTACATGGACCGGTTTTCCCGGTAATCCGTATTTGGC (site TTGATTACTGC) | 0
TTGATTCCATGGACCGGTTTTCCCGGTAATCCGTATTTGAC (site TTGATTCCTGT) | 0.35
TTGCAAGCATGGACCGGTTTTCCCGGTAATCCGTATTTGCT (site TTGCAAGCTAG) | 0
TTGCTACCATGGACCGGTTTTCCCGGTAATCCGTATTTGCT (site ATGCTACCTAG) | 0
TTGCTACCATGGACCGGTTTTCCCGGTAATCCGTATTTGCT (site CTGCTACCTAG) | 0.00337
TTGCTACCATGGACCGGTTTTCCCGGTAATCCGTATTTGCT (site GTGCTACCTAG) | 0
TTGCTACCATGGACCGGTTTTCCCGGTAATCCGTATTTGCT (site TTGCTACCTAG) | 0
TTGGCAACATGGACCGGTTTTCCCGGTAATCCGTATTTGAT (site TTGGCAACTAT) | 0.238
TTGGCGCCATGGACCGGTTTTCCCGGTAATCCGTATTTGAG (site TTGGCGCCTCT) | 0.00946
TTGGTAACATGGACCGGTTTTCCCGGTAATCCGTATTTGAC (site TTGGTAACTGT) | 2.33
TTGGTATCATGGACCGGTTTTCCCGGTAATCCGTATTTGTG (site TTGGTATCTCA) | 1.82
TTGGTGGCATGGACCGGTTTTCCCGGTAATCCGTATTTGTC (site TTGGTGGCTGA) | 1.5
TTGTACGCATGGACCGGTTTTCCCGGTAATCCGTATTTGCA (site TTGTACGCTTG) | 1.8
TTGTAGGCATGGACCGGTTTTCCCGGTAATCCGTATTTGGC (site ATGTAGGCTGC) | 0
TTGTAGGCATGGACCGGTTTTCCCGGTAATCCGTATTTGGC (site CTGTAGGCTGC) | 1.59
TTGTAGGCATGGACCGGTTTTCCCGGTAATCCGTATTTGGC (site GTGTAGGCTGC) | 0

Sequence | recombinant UMI read abundance (log10)
TTGTAGGCATGGACCGGTTTTCCCGGTAATCCGTATTTGGC (site TTGTAGGCTGC) | 1.76
TTGTCACCATGGACCGGTTTTCCCGGTAATCCGTATTTGTG (site TTGTCACCTCA) | 0.0196
TTGTCGACATGGACCGGTTTTCCCGGTAATCCGTATTTGAC (site TTGTCGACTGT) | 0.302
TTGTGGCCATGGACCGGTTTTCCCGGTAATCCGTATTTGTG (site TTGTGGCCTCA) | 0.0156
TTGTGTACATGGACCGGTTTTCCCGGTAATCCGTATTTGCA (site TTGTGTACTTG) | 0.756
TTTAATCCATGGACCGGTTTTCCCGGTAATCCGTATTTGAT (site TTTAATCCTAT) | 0.157
TTTAGGGCATGGACCGGTTTTCCCGGTAATCCGTATTTGAC (site TTTAGGGCTGT) | 1.53
TTTATTTCATGGACCGGTTTTCCCGGTAATCCGTATTTGAG (site TTTATTTCTCT) | 0.00225
TTTCCGGCATGGACCGGTTTTCCCGGTAATCCGTATTTGTA (site TTTCCGGCTTA) | 0.262
TTTCGATCATGGACCGGTTTTCCCGGTAATCCGTATTTGGT (site TTTCGATCTAC) | 0.00229
TTTCTGCCATGGACCGGTTTTCCCGGTAATCCGTATTTGAA (site TTTCTGCCTTT) | 0.00894
TTTCTGCCATGGACCGGTTTTCCCGGTAATCCGTATTTGCG (site TTTCTGCCTCG) | 0.0153
TTTGAGGCATGGACCGGTTTTCCCGGTAATCCGTATTTGCT (site TTTGAGGCTAG) | 1.31
TTTGAGGCATGGACCGGTTTTCCCGGTAATCCGTATTTGCT (site TTTGCGGCTAG) | 0
TTTGAGGCATGGACCGGTTTTCCCGGTAATCCGTATTTGCT (site TTTGGGGCTAG) | 0.458
TTTGAGGCATGGACCGGTTTTCCCGGTAATCCGTATTTGCT (site TTTGTGGCTAG) | 0.0143
TTTGCGACATGGACCGGTTTTCCCGGTAATCCGTATTTGCT (site TTTGCGACTAG) | 0.529
TTTGCGACATGGACCGGTTTTCCCGGTAATCCGTATTTGCT (site TTTGCGCCTAG) | 0.00919
TTTGCGACATGGACCGGTTTTCCCGGTAATCCGTATTTGCT (site TTTGCGGCTAG) | 0.145
TTTGCGACATGGACCGGTTTTCCCGGTAATCCGTATTTGCT (site TTTGCGTCTAG) | 0

Sequence | recombinant UMI read abundance (log10)
TTTGCGGCATGGACCGGTTTTCCCGGTAATCCGTATTTGGT (site TTTGCGGCTAA) | 0.0207
TTTGCGGCATGGACCGGTTTTCCCGGTAATCCGTATTTGGT (site TTTGCGGCTAC) | 0.0146
TTTGCGGCATGGACCGGTTTTCCCGGTAATCCGTATTTGGT (site TTTGCGGCTAG) | 0.0123
TTTGCGGCATGGACCGGTTTTCCCGGTAATCCGTATTTGGT (site TTTGCGGCTAT) | 0.144
TTTGCGGCATGGACCGGTTTTCCCGGTAATCCGTATTTGTT (site TTTGCGGCTAA) | 0.223
TTTGCGGCATGGACCGGTTTTCCCGGTAATCCGTATTTGTT (site TTTGCGGCTAC) | 0.0157
TTTGCGGCATGGACCGGTTTTCCCGGTAATCCGTATTTGTT (site TTTGCGGCTAG) | 0.0139
TTTGCGGCATGGACCGGTTTTCCCGGTAATCCGTATTTGTT (site TTTGCGGCTAT) | 0.00523
TTTGCTTCATGGACCGGTTTTCCCGGTAATCCGTATTTGGT (site TTTGCTTCTAC) | 0.00326
TTTGTTCCATGGACCGGTTTTCCCGGTAATCCGTATTTGTG (site TTTGTTCCTCA) | 0.0191
TTTTCCCCATGGACCGGTTTTCCCGGTAATCCGTATTTGTA (site TATTCCCCTTA) | 0.00331
TTTTCCCCATGGACCGGTTTTCCCGGTAATCCGTATTTGTA (site TCTTCCCCTTA) | 0.00391
TTTTCCCCATGGACCGGTTTTCCCGGTAATCCGTATTTGTA (site TGTTCCCCTTA) | 0.0253
TTTTCCCCATGGACCGGTTTTCCCGGTAATCCGTATTTGTA (site TTTTCCCCTTA) | 0.0384
TTTTCGGCATGGACCGGTTTTCCCGGTAATCCGTATTTGCT (site TTTACGGCTAG) | 0.0102
TTTTCGGCATGGACCGGTTTTCCCGGTAATCCGTATTTGCT (site TTTCCGGCTAG) | 0.302
TTTTCGGCATGGACCGGTTTTCCCGGTAATCCGTATTTGCT (site TTTGCGGCTAG) | 0.00223
TTTTCGGCATGGACCGGTTTTCCCGGTAATCCGTATTTGCT (site TTTTCGGCTAG) | 0.0145
